pIC50: −log10 of the molar value. Where “and” joins values, the source holds several entries; their conditions need not be identical. Identical values can stand only once. Entries after “also recorded” stand apart in the source; their conditions may differ. Like-named read-outs stand apart in the source and are kept apart here.
Experiments:
[1] = test system: KB3.1 (human cervix carcinoma); experiment: Cytotoxicity assay (MTT), KB3.1; type: cell-based; details: Homo sapiens, KB 3-1, 120 h, read-out: IC50 KB3.1
Protocol: (§1) The cytotoxicity assay was implemented in 96-well flat-bottom microtiter plates following a reported procedure.[21],[22],[33] The mammalian cell lines L929 (mouse fibroblast) and KB3.1 (human cervix carcinoma) were cultivated at 37 °C and 10% CO2 in Dulbecco’s modified minimum essential medium (DMEM, Life Technologies, Carlsbad, CA, USA) supplemented with 10% fetal bovine serum (FBS, Life Technologies). The microtiter plate was filled with 120 μL of suspended cells (50,000/mL), and 60 μL of a serial dilution of the test compound was added. After 5 days of incubation, growth inhibition (IC50) was determined by a colorimetric tetrazolium dye MTT assay.[34] The compounds were dissolved in MeOH (1 mg/mL), MeOH was used as negative control, and epothilone[35] (1 mg/mL) was used as positive control.

L929 (mouse fibroblast) = experiment: Cytotoxicity assay (MTT), L929; type: cell-based; details: Mus musculus, L929, 120 h, read-out: IC50 L929
Protocol: as §1

[2] = target: T1, actin (G-actin purified from rabbit skeletal muscle) (Oryctolagus cuniculus, UniProt P68135); experiment: Pyrene actin polymerization assay; type: biochemical; details: 2 μM compound, 2 μM actin (5% pyrene-actin), 550 nM actin seeds, after 30 min; control = 100%
T1 construct: 1.5 kg of fresh rabbit skeletal muscle was minced with a meat grinder; from tissue; host or cells: rabbit skeletal muscle (acetone powder)
Description: To rule out that the reduced in cellulo efficacies of 3–5 could instead be explained by an altered membrane permeability of modified compounds or their differential effects on other intracellular factors, pyrene actin polymerization assays[23] were used to analyze potential effects on actin assembly in vitro under defined conditions. Globular actin (G-actin) was purified from rabbit skeletal muscle[24] and fluorescently labeled with pyrene (see description in the Supporting Information). G-actin (2 μM) supplemented with 5% pyrene-labeled actin was added to actin seeds and the respective compound (2 μM) in polymerization buffer to initiate the reaction. Actin polymerization was then assessed by reading out the increasing pyrene fluorescence signal over time (Figure 3).
Acetone powder and G-actin were prepared as described previously.[24] Briefly, 1.5 kg of fresh rabbit skeletal muscle was minced with a meat grinder. Subsequently, the meat was stirred for 15 min in 2.5 L of high-salt buffer (0.5 M KCl, 0.1 M K2HPO4, 2 mM benzamidine, pH 6.4) and then pelleted at 4000g for 10 min. The supernatant was discarded, and the pellet was extracted once more with high-salt buffer and then washed twice with ice-cold ddH2O adjusting the slurry with 1 M Na2CO3 to pH 8.3 until a slight swelling of the pellet became visible. The pellet was then resuspended in ice-cold acetone, stirred for 15 min, and then centrifuged for 10 min at 4000g. The supernatant was discarded, and the pellet was washed once more with acetone before the pellet was broken up and dried in small pieces on aluminum foil under a fume hood overnight. The dried acetone powder was stored at −80 °C for further use.
For purification of G-actin, 5 g of the acetone powder was extracted five times with 50 mL of G-buffer containing 2 mM Tris-HCl, pH 8.0, 0.2 mM CaCl2, 0.5 mM DTT, 0.2 mM Na2ATP, and 0.1 mg/mL NaN3. After each step, the solution was filtered through a fine gauze, yielding a total volume of 250 mL. Subsequently, the solution was centrifuged for 30 min at 20,000g at 4 °C. Actin in the supernatant was then polymerized by addition of 25 × polymerization buffer (250 mM Tris-HCl pH 8.0, 1250 mM KCl, 25 mM Na2ATP, 50 mM MgCl2 × 6 H2O) overnight. Subsequently, KCl was added to a final concentration of 750 mM, followed by centrifugation of the solution at 150,000g at 4 °C for 3 h. The F-actin pellet was then homogenized with 25 mL of G-actin buffer using a potter and then dialyzed against G-buffer. After a final centrifugation step at 150,000g at 4 °C for 3 h, G-actin was purified by size exclusion chromatography using a HiLoad 26/75 Superdex 200 column. Actin concentrations were determined by measuring the absorbance at 290 nm and using an extinction coefficient of 26,600 M^–1 cm^–1.
For pyrene labeling, 10–20 mL of G-actin solution were dialyzed against labeling buffer following the procedure described by Doolittle et al.[38] […]
Pyrene assays were conducted to assess the inhibitory properties of cytochalasins on actin polymerization under defined conditions in vitro using G-actin and actin seeds. The degree of labeling was determined; EC290 nm actin: 26600 1/M × cm; EC342 nm pyrene: 31091 1/M × cm. […]

[3] = test system: filamentous actin (F-actin) in U-2OS wild type (wt) cells; experiment: Actin disruption assay in U-2OS cells (phalloidin staining); type: cell-based, human; details: for effect on F-actin network, high dose 1 h: 5 x IC50 (L929), compared to control; for effect on actin and nuclei number, high dose 24 h: 5 x IC50, 24 h, differences between 1 and 24 h treatment
Protocol: For this, the human osteosarcoma cell line U-2OS was treated using concentrations estimated based on previously determined IC50 values in murine L929 fibroblasts (Table 1), referred to as low dose (1 × IC50), and a 5-fold concentration, referred to as high dose (5 × IC50). Reorganization of the F-actin network was also investigated upon high dose treatment, followed by washout and a 1 h recovery phase in fresh medium. The impact on F-actin network organization was visualized using fluorescently labeled phalloidin (Figure 2). […] In addition, the effects on F-actin structures observed upon high dose treatment of all compounds were fully reversible after a 1 h recovery time (Figure 2m–q).
The respective previously determined IC50 values in L929 were used to calculate the treatment concentration (1 × IC50: low dose; 5 × IC50: high dose).[37] DMSO was used as the vehicle control, corresponding to the highest compound volume used in the assay. Coverslips were coated with 25 μg/mL fibronectin (Roche, Mannheim, Germany) diluted 1:40 in phosphate buffered saline (PBS, pH 7.4, Life Technologies), and cells were seeded at a density of 20,000 cells and allowed to spread overnight. CO2-equilibrated culture medium was spiked with the desired compound and DMSO, respectively, in the above-mentioned concentration, and cells were treated with prepared medium for 1 h under cell culture conditions. For long-term experiments, the treatment phase was extended to 24 h. Cells were washed once and fixed afterward using 4% prewarmed paraformaldehyde (PFA) supplied in PBS for 20 min at 37 °C, followed by three additional washing steps with prewarmed PBS buffer. In addition, the reversibility of high dose effects on F-actin network organization was investigated by a washout procedure including three times prewarmed PBS wash steps prior to the addition of fresh medium and a recovery time of 1 h before fixation. In the case of 24 h treatments, the recovery phase was extended to 47 h. Cells were permeabilized with 0.1% Triton X-100 (Bio-Rad Laboratories, Hercules, CA, USA) in PBS buffer for 1 min at room temperature, washed three times with PBS, and stained for F-actin using ATTO-594-coupled phalloidin (ATTO-Tec, Siegen, Germany) diluted in PBS buffer (1:100) for 1 h at room temperature. Coverslips were washed thrice in PBS and mounted in ProLong Diamond antifade mountant (Invitrogen) containing DAPI to probe for nuclear DNA. Cells were recorded using an inverted microscope (Nikon Eclipse Ti2, Tokyo, Japan) equipped with a 60 times Nikon oil immersion objective (Plan Apofluar, 1.4 NA), a pE-4000 (CoolLED, Andover, UK) as light source, and a pco.edge back-illuminated sCMOS camera (Excelitas Technologies, Mississauga, ON, Canada). The microscopy system was operated by and images were recorded with NIS (Nikon) and processed with ImageJ (NIH, Bethesda, MD, USA).

[4] = test system: human potassium channel hKv1.5; design: method as in PMID 15800051; details: cited from earlier work
[5] = test system: glucose carrier in human erythrocytes; details: human erythrocytes ref 29, 30; cited from earlier work
[6] = 5 days of incubation, MTT, NC: no cytotoxic effect, or only weak inhibition of proliferation

SMILES	pIC50 [1]	pIC50 (L929 (mouse fibroblast))	relative actin polymerization rate [2]	effect on F-actin network, low dose ([3]; 1 x IC50 (L929), 1 h)	effect on F-actin network, high dose 1 h ([3]; 1 h)	effect on actin and nuclei number, high dose 24 h [3]	inhibitory activity on hKv1.5 [4]	inhibition of glucose transport [5]	pIC50 (L929 (mouse fibroblast); [6])
C/C(=C\c1csc(C)n1)[C@@H]1C[C@@H]2O[C@]2(C)CCC[C@H](C)[C@H](O)[C@@H](C)C(=O)C(C)(C)[C@@H](O)CC(=O)O1 [Epothilone B, reference compound]	10.02	9.24							
C=C1[C@@H](C)[C@H]2[C@H](Cc3ccccc3)NC(=O)[C@]23OC(=O)/C=C/[C@H](O)CCC[C@@H](C)C/C=C/[C@H]3[C@@H]1O [Compound 2, cytochalasin B]			45%	partially led to compromised lamellipodia and a reduction of intermittent, cytoplasmic F-actin	complete collapse of the F-actin network; also recorded: actin disruption	+ multinucleation; also recorded: formation of multinucleated cells	inhibitory activity	inhibits glucose transport	5.89
C=C1[C@@H](C)[C@H]2[C@H](Cc3ccccc3)N(C)C(=O)[C@]23OC(=O)/C=C/[C@H](O)CCC[C@@H](C)C/C=C/[C@H]3[C@@H]1O [Compound 4, N-methyl cytochalasin B]			83% and 84–86% and 84%		only slight; also recorded: moderate effects	caused multinucleation, but left the actin network largely unchanged			< 5.00
